These results are taken from US7320967B2, “Cosmetic composition, method of cosmetic treatment and preparation of a composition for promoting the growth and/or preventing or delaying the loss of hair” (L'Oreal, priority 2002, dated 2008).

The target in one assay is T1, PGFS (Homo sapiens, UniProt P42330, H5Q).
T1 construct: GST (glutathione S-transferase, pGEX 2T) (N, cleaved yes); made in house; host or cells: E. coli BL21DE3
T1 sequence (P42330 1-323 H5Q): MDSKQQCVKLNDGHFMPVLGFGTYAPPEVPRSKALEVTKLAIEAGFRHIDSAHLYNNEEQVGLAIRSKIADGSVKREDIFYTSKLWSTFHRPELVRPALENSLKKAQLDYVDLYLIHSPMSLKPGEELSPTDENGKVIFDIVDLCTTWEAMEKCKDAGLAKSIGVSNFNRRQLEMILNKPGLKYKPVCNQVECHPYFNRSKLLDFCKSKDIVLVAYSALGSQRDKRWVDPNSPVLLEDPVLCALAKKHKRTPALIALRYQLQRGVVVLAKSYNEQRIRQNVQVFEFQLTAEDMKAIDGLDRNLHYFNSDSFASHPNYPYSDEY
Briefly: PGFS test (maximum reaction rate, optical density at 340 nm). Particulars: for IC50: protocol of Example 3. In kind it is biochemical. As for the experimental part: The compounds noted as 15-PGDH inhibitors are then tested for their capacity to inhibit PGF synthase. For that, the following are for example brought into contact: the enzyme PGFS at a final concentration of 25×10^−3 mg/l, its cosubstrate (β-NADPH2) and a substrate (for example phenanthrenequinone) at the concentrations conventionally used for this test as described for example by Suzuki et al. (cDNA cloning, expression and mutagenesis study of liver-type prostaglandin F synthase. J Biol Chem, 1999, 274(1): 241-248), that is to say 100 μM β-NADPH2 and 20 μM phenanthrenequinone. The maximum reaction rate is measured per unit of time at 37° C. The same reaction is carried out but adding the test compound to the medium at the start of the reaction. The maximum enzyme reaction rate with the compound is compared to that of the control with no compound, and the percentage inhibition [100−(Vmax assay×100)/Vmax control] is determined.
The enzyme obtained is at a concentration of 0.5 mg/ml and blocked at −80° C. This suspension is thawed and stored on ice.
Preparation in a brown flask (protection from light) of a 100 mM Tris buffer pH=6.5 containing 20 μM 9,10-phenanthrenequinone* (P2896, Sigma-Aldrich, L'isle D'Abeau Chesne, BP 701, 38297, Saint Quentin Fallavier) and 100 μM β-NADPH (N1630, Sigma-Aldrich, L'isle D'Abeau Chesne, BP 701, 38297, Saint Quentin Fallavier). A stock solution having a titre of 1 mM is prepared in absolute ethanol heated to 40° C., the flask is placed in an ultrasonic tank in order to facilitate the solubilization of the product.
0.950 ml of this buffer (previously heated to 37° C.) is introduced into the cuvette of a spectrophotometer (Perkin-Elmer, Lambda 2) thermostated at 37° C. whose wavelength for measurement is set at 340 nm. 0.05 ml of enzymatic suspension at 37° C. is introduced into the cuvette concomitantly with the recording (reduction in the optical density at 340 nm).
(§1) The maximum reaction rate is recorded.
(§2) The test values (molecules) are compared with the control value (with no molecule), the results are expressed as % of the control value.

Assay [1] concerns PGF2α secreted by U937 cells. Briefly: Cellular model: PGF2α secreted by PMA-differentiated, LPS-stimulated U937 cells. It is filed as cell-based. Particulars: 5 μM; U937 + 10 nM PMA, then LPS, 6 h. As for the experimental part: This makes it possible to evaluate the efficacy of a selective 15-PGDH inhibitor on the protection of prostaglandins in a complex biological system producing the different types of enzyme involved in the metabolism of these molecules. For example, a culture of promonocytes is used, these being precursors of macrophages under certain conditions, a model which is very widespread for studying the metabolism of prostaglandins.
Indeed, the phorbol esters (10 nM PMA) cause within 24 h 00 min the differentiation of the promonocyte line U937 into macrophages; this differentiation is accompanied by the induction of 15-PGDH. (Tong and Tai, Biochim Biophys Acta, 2000; 1497: 61-68).
Moreover, stimulation of these macrophages by LPS (lipopolysaccharide extracted from the bacterial wall) induces (at 100 ng/ml) in 6 h 00 min PGHS-2 (or COX-2), an enzyme responsible (in the same way as COX-1) for the synthesis of PGH2, a precursor (inter alia) via PGFS, of PGF2α (Arias-Negrete et al., 1995. Biochem Biophys Res Commun, 208(2), 582-589).
In a 1st stage, macrophage precursors are cultured in a suitable medium, in the presence of a compound stimulating their differentiation and the induction of 15-PGDH, and then the production of prostaglandins by these cells is stimulated, for example by LPSs in the form of an extract or by purified LPSs; this 2nd stage is performed in the presence or otherwise of the compound to be tested. The concentrations of prostaglandins, in particular of PGF2α, obtained in the presence of the 15-PGDH inhibiting compound to be tested are compared to that of the control containing only the 15-PGDH inducer, it being possible to carry out this measurement by any method known to a person skilled in the art, in particular by immunoenzymatic assay. […]
All the wells will contain the same final quantity of DMSO.
Immediate evaluation of the quantity of PGF2α secreted by the cells (50 μl) under different conditions (molecules or controls) using an immunoenzymatic assay kit (Cayman ref. 516011). […]

The target in another assay is T2, 15-PGDH (Homo sapiens, UniProt P15428).
T2 construct: GST (glutathione S-transferase, pGEX 4T3) (N, cleaved yes); made in house; host or cells: E. coli BL21DE3plys
T2 sequence (P15428 1-266): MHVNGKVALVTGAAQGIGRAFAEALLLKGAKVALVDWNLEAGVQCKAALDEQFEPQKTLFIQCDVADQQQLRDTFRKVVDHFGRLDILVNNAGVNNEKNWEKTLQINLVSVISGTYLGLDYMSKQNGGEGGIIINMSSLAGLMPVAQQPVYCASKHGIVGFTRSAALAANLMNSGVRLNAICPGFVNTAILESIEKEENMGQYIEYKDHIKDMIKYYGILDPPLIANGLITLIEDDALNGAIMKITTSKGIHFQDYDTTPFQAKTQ
Briefly: 15-PGDH test (maximum reaction rate, optical density at 340 nm). In kind it is biochemical. How it is done: For that, the following are for example brought into contact: the enzyme 15-PGDH at a final concentration of 7×10^−3 mg/ml, its cosubstrate (β-NAD) and a substrate (PGE2) at the concentrations corresponding to the conditions conventionally used for this test as described for example by Cho and Tai (Inhibition of NAD-dependent 15-hydroxyprostaglandin dehydrogenase (15-PGDH) by cyclooxygenase inhibitors and chemopreventive agents. Prostaglandins, Leukotrienes and Essential Fatty Acids, 2002, 67(6): 461-465), for example 1.5 mM β-NAD and 50 μM prostaglandin E2. The rate of the reaction is measured at 37° C. for 1 minute. The same reaction is carried out, but adding the test compound to the medium at the start of the reaction. The maximum enzyme reaction rate per unit of time (Vmax) measured in the presence of the compound is compared to that of the control with no compound, and the percentage inhibition [100−(Vmax assay×100)/Vmax control] is determined.
The enzyme obtained is at the concentration of 0.3 mg/ml and is blocked at −80° C. This suspension is thawed and stored on ice.
Preparation of a 100 mM Tris buffer pH=7.4 containing 0.1 mM dithiothreitol (D5545, Sigma-Aldrich, L'isle D'Abeau Chesne, BP 701, 38297, Saint Quentin Fallavier), 1.5 mM β-NAD (N6522, Sigma-Aldrich, L'isle D'Abeau Chesne, BP 701, 38297, Saint Quentin Fallavier), 50 μM Prostaglandin E2 (P4172, Sigma-Aldrich, L'isle D'Abeau Chesne, BP 701, 38297, Saint Quentin Fallavier).
0.965 ml of this buffer (previously heated to 37° C.) is introduced into a spectrophotometer cuvette (Perkin-Elmer, Lambda 2) thermostated at 37° C., whose wavelength for measurement is set at 340 nm. 0.035 ml of enzymatic suspension at 37° C. are introduced into the cuvette concomitantly with the recording (increase in the optical density at 340 nm).
as §1, §2

Setting [2] is: protocol of Example 3, read-out: Inhibition of 15-PGDH at 50 μM.

SMILES strings stand for the structures. Where two headings read alike, the source gives them in different places. Some results are limits rather than exact numbers.

On to `COc1ccccc1NC(=O)Cn1nnc(-c2ccccc2)n1` [Compound 4, N-(2-methoxyphenyl)-2-(5-phenyl-2H-tetrazol-2-yl)acetamide], for which the IC50 (commonly the concentration that gives 50% inhibition) at PGFS was over 75 µM; against 15-PGDH (protocol of Example 3) it was 55 µM. The “PGF2α secreted, % of the control (LPS control)” value (“PGF2α secreted, % of the control” for short) in assay [1] is “+6%”. In addition, the inhibition – broadly, the percentage by which the read-out fell short of the control – at 50 µM on 15-PGDH (setting [2]) worked out at 60%.

On to `Nc1c(Cl)nc(-c2ccccc2)nc1Cl` [Molecule A, 5-amino-4,6-dichloro-2-phenylpyrimidine], for which the figures for the inhibition at 50 µM at PGFS and at 15-PGDH (read-out: % Inhibition 15-PGDH) were 5% and 43%, respectively.

On to `O=C(Nc1ncc2c(n1)CC(c1ccccc1Cl)CC2=O)c1ccccc1` (centres unmarked) [Molecule B, N-[7-(2-Chlorophenyl)-5-oxo-5,6,7,8-tetrahydroquinazolin-2-yl]benzamide], for which the inhibition at 50 µM against PGFS worked out at 10%; at 15-PGDH (read-out: % Inhibition 15-PGDH) it was 57%.

For the molecule `Cc1ccc(NC(=O)Cn2nnc(-c3cccc(C(F)(F)F)c3)n2)cc1` [Compound R29A, N-(4-methylphenyl)-2-{5-[3-(trifluoromethyl)phenyl]-2H-tetrazol-2-yl}acetamide], the IC50 is over 75 µM on PGFS and 30 µM against 15-PGDH (protocol of Example 3). The “PGF2α secreted, % of the control” value in assay [1] was “+46%”.

`O=C(Cc1nnn(-c2ccccc2)n1)c1ccccc1` [Compound 1, 1-phenyl-2-(2-phenyl-2H-tetrazol-5-yl)ethanone] showed an IC50 at PGFS of over 75 µM. The “PGF2α secreted, % of the control” value in assay [1] was “+16%”. Also, the inhibition at 50 µM on 15-PGDH (setting [2]) is 70%.
